According to patent publication US20040156869A1, “2-substituted quinazolin-4-ylamine analogues” (Neurogen Corporation, priority 2002, published 2004):
pKi: −log10 of the molar value.

target: human capsaicin receptor (VR1) (Homo sapiens, UniProt Q8NER1); assay: Capsaicin receptor binding assay ([3H]RTX competition, VR1-transfected HEK293 membranes)
Sequence (Q8NER1 whole entry): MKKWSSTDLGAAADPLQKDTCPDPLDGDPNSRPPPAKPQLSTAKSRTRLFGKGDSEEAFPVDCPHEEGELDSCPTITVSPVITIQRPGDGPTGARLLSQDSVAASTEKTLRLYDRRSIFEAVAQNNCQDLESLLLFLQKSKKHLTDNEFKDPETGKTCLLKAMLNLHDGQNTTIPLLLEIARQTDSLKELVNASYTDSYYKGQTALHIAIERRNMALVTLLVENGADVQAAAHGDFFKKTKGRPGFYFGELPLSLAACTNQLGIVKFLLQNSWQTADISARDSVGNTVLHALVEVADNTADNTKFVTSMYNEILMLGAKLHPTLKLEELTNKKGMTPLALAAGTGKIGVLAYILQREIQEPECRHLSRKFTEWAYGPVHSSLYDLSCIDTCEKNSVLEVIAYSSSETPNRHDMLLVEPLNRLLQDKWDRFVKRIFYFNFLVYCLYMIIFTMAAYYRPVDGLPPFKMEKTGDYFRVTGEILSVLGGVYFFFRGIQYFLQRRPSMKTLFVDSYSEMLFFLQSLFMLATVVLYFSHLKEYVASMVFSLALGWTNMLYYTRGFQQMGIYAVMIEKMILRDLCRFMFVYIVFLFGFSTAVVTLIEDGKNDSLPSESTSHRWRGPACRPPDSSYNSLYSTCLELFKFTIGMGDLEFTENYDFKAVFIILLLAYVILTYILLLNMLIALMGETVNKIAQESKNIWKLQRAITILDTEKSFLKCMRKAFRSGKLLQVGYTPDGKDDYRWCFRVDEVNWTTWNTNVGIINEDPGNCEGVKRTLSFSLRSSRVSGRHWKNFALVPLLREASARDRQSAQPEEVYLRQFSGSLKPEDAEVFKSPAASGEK

SMILES	pKi
CN1C2CCC1CC(NC(=O)c1nc(Nc3ccc(C(F)(F)F)cc3)c3ccc(-c4ncccc4C(F)(F)F)nc3n1)C2 (stereo not shown) [Compound 445, 4-(4-Trifluoromethyl-phenylamino)-7-(3-trifluoromethyl-pyridin-2-yl)-pyrido[2,3-d]pyrimidine-2-carboxylic acid (8-methyl-8-aza-bicyclo[3.2.1]oct-3-yl)-amide]	> 6.00
C=CCNC(=O)c1nc(Nc2ccc(C(F)(F)F)cc2)c2ccc(-c3ncccc3C(F)(F)F)nc2n1 [Compound 451, 4-(4-Trifluoromethyl-phenylamino)-7-(3-trifluoromethyl-pyridin-2-yl)-pyrido[2,3-d]pyrimidine-2-carboxylic acid allylamide]	> 6.00
CCCNC(=O)c1nc(Nc2ccc(C(F)(F)F)cc2)c2ccc(-c3ncccc3C(F)(F)F)nc2n1 [Compound 452, 4-(4-Trifluoromethyl-phenylamino)-7-(3-trifluoromethyl-pyridin-2-yl)-pyrido[2,3-d]pyrimidine-2-carboxylic acid propylamide]	> 6.00
O=C(NCC1CC1)c1nc(Nc2ccc(C(F)(F)F)cc2)c2ccc(-c3ncccc3C(F)(F)F)nc2n1 [Compound 453, 4-(4-Trifluoromethyl-phenylamino)-7-(3-trifluoromethyl-pyridin-2-yl)-pyrido[2,3-d]pyrimidine-2-carboxylic acid cyclopropylmethyl-amide]	> 6.00
CCOCCNC(=O)c1nc(Nc2ccc(C(F)(F)F)cc2)c2ccc(-c3ncccc3C(F)(F)F)nc2n1 [Compound 454, 4-(4-Trifluoromethyl-phenylamino)-7-(3-trifluoromethyl-pyridin-2-yl)-pyrido[2,3-d]pyrimidine-2-carboxylic acid (2-ethoxy-ethyl)-amide]	> 6.00
COCCNC(=O)c1nc(Nc2ccc(C(F)(F)F)cc2)c2ccc(-c3ncccc3C(F)(F)F)nc2n1 [Compound 455, 4-(4-Trifluoromethyl-phenylamino)-7-(3-trifluoromethyl-pyridin-2-yl)-pyrido[2,3-d]pyrimidine-2-carboxylic acid (2-methoxy-ethyl)-amide]	> 6.00
COCCCNC(=O)c1nc(Nc2ccc(C(F)(F)F)cc2)c2ccc(-c3ncccc3C(F)(F)F)nc2n1 [Compound 456, 4-(4-Trifluoromethyl-phenylamino)-7-(3-trifluoromethyl-pyridin-2-yl)-pyrido[2,3-d]pyrimidine-2-carboxylic acid (3-methoxy-propyl)-amide]	> 6.00
O=C(NCC1CCCO1)c1nc(Nc2ccc(C(F)(F)F)cc2)c2ccc(-c3ncccc3C(F)(F)F)nc2n1 (stereo not shown) [Compound 457, 4-(4-Trifluoromethyl-phenylamino)-7-(3-trifluoromethyl-pyridin-2-yl)-pyrido[2,3-d]pyrimidine-2-carboxylic acid (tetrahydro-furan-2-ylmethyl)-amide]	> 6.00
CC(C)(C)CNC(=O)c1nc(Nc2ccc(C(F)(F)F)cc2)c2ccc(-c3ncccc3C(F)(F)F)nc2n1 [Compound 458, 4-(4-Trifluoromethyl-phenylamino)-7-(3-trifluoromethyl-pyridin-2-yl)-pyrido[2,3-d]pyrimidine-2-carboxylic acid (2,2-dimethyl-propyl)-amide]	> 6.00
O=C(c1nc(Nc2ccc(C(F)(F)F)cc2)c2ccc(-c3ncccc3C(F)(F)F)nc2n1)N1CCCC1 [Compound 459, Pyrrolidin-1-yl-[4-(4-trifluoromethyl-phenylamino)-7-(3-trifluoromethyl-pyridifl-2-yl)-pyrido[2,3-d]pyrimidin-2-yl]-methanone]	> 6.00
O=C(c1nc(Nc2ccc(C(F)(F)F)cc2)c2ccc(-c3ncccc3C(F)(F)F)nc2n1)N1CCCCC1 [Compound 460, Piperidin-1-yl-[4-(4-trifluoromethyl-phenylamino)-7-(3-trifluorornethyl-pyridin-2-yl)-pyrido[2,3-d]pyrimidin-2-yl]-methanone]	> 6.00
O=C(c1nc(Nc2ccc(C(F)(F)F)cc2)c2ccc(-c3ncccc3C(F)(F)F)nc2n1)N1CCOCC1 [Compound 461, Morpholin-4-yl-[4-(4-trifluoromethyl-phenylamino)-7-(3-trifluoromethyl-pyridin-2-yl)-pyrido[2,3-d]pyrimidin-2-yl]-methanone]	> 6.00
CC1CCN(C(=O)c2nc(Nc3ccc(C(F)(F)F)cc3)c3ccc(-c4ncccc4C(F)(F)F)nc3n2)CC1 [Compound 462, (4-Methyl-piperidin-1-yl)-[4-(4-trifluoromethyl-phenylamino)-7-(3-trifluoromethyl-pyridin-2-yl)-pyrido[2,3-d]pyrimidin-2-yl]-methanone]	> 6.00

More lines, now with the values ahead:

pKi	SMILES
> 6.00	CN(C)CCNC(=O)c1nc(Nc2ccc(C(F)(F)F)cc2)c2ccc(-c3ncccc3C(F)(F)F)nc2n1 [Compound 435, 4-(4-Trifluoromethyl-phenylamino)-7-(3-trifluoromethyl-pyridin-2-yl)-pyrido[2,3-d]pyrimidine-2-carboxylic acid (2-dimethylamino-ethyl)-amide]
> 6.00	CN(C)CCCNC(=O)c1nc(Nc2ccc(C(F)(F)F)cc2)c2ccc(-c3ncccc3C(F)(F)F)nc2n1 [Compound 436, 4-(4-Trifluoromethyl-phenylamino)-7-(3-trifluoromethyl-pyridin-2-yl)-pyrido[2,3-d]pyrimidine-2-carboxylic acid (3-dimethylamino-propyl)-amide]
> 6.00	O=C(NCCN1CCCC1)c1nc(Nc2ccc(C(F)(F)F)cc2)c2ccc(-c3ncccc3C(F)(F)F)nc2n1 [Compound 437, 4-(4-Trifluoromethyl-phenylamino)-7-(3-trifluoromethyl-pyridin-2-yl)-pyrido[2,3-d]pyrimidine-2-carboxylic acid (2-pyrrolidin-1-yl-ethyl)-amide]
> 6.00	CCN(CC)CCNC(=O)c1nc(Nc2ccc(C(F)(F)F)cc2)c2ccc(-c3ncccc3C(F)(F)F)nc2n1 [Compound 438, 4-(4-Trifluoromethyl-phenylamino)-7-(3-trifluoromethyl-pyridin-2-yl)-pyrido[2,3-d]pyrimidine-2-carboxylic acid (2-diethylamino-ethyl)-amide]
> 6.00	O=C(NCCN1CCCCC1)c1nc(Nc2ccc(C(F)(F)F)cc2)c2ccc(-c3ncccc3C(F)(F)F)nc2n1 [Compound 439, 4-(4-Trifluoromethyl-phenylamino)-7-(3-trifluoromethyl-pyridin-2-yl)-pyrido[2,3-d]pyrimidine-2-carboxylic acid (2-piperidin-1-yl-ethyl)-amide]
> 6.00	CN1CCCC1CCNC(=O)c1nc(Nc2ccc(C(F)(F)F)cc2)c2ccc(-c3ncccc3C(F)(F)F)nc2n1 (stereo not shown) [Compound 440, 4-(4-Trifluoromethyl-phenylamino)-7-(3-trifluoromethyl-pyridin-2-yl)-pyrido[2,3-d]pyrimidine-2-carboxylic acid [2-(1-methyl-pyrrolidin-2-yl)-ethyl]-amide]
> 6.00	CCN(CC)CCCNC(=O)c1nc(Nc2ccc(C(F)(F)F)cc2)c2ccc(-c3ncccc3C(F)(F)F)nc2n1 [Compound 441, 4-(4-Trifluoromethyl-phenylamino)-7-(3-trifluoromethyl-pyridin-2-yl)-pyrido[2,3-d]pyrimidine-2-carboxylic acid (3-diethylamino-propyl)-amide]
> 6.00	O=C(NCCN1CCOCC1)c1nc(Nc2ccc(C(F)(F)F)cc2)c2ccc(-c3ncccc3C(F)(F)F)nc2n1 [Compound 442, 4-(4-Trifluoromethyl-phenylamino)-7-(3-trifluoromethyl-pyridin-2-yl)-pyrido[2,3-d]pyrimidine-2-carboxylic acid (2-morpholin-4-yl-ethyl)-amide]
> 6.00	O=C(NCCCN1CCOCC1)c1nc(Nc2ccc(C(F)(F)F)cc2)c2ccc(-c3ncccc3C(F)(F)F)nc2n1 [Compound 443, 4-(4-Trifluoromethyl-phenylamino)-7-(3-trifluoromethyl-pyridin-2-yl)-pyrido[2,3-d]pyrimidine-2-carboxylic acid (3-morpholin-4-yl-propyl)-amide]
> 6.00	CC(CN(C)C)NC(=O)c1nc(Nc2ccc(C(F)(F)F)cc2)c2ccc(-c3ncccc3C(F)(F)F)nc2n1 (stereo not shown) [Compound 444, 4-(4-Trifluoromethyl-phenylamino)-7-(3-trifluoromethyl-pyridin-2-yl)-pyrido[2,3-d]pyrimidine-2-carboxylic acid (2-dimethylamino-1-methyl-ethyl)-amide]
> 6.00	CCN(CC)CCCC(C)NC(=O)c1nc(Nc2ccc(C(F)(F)F)cc2)c2ccc(-c3ncccc3C(F)(F)F)nc2n1 (stereo not shown) [Compound 446, 4-(4-Trifluoromethyl-phenylamino)-7-(3-trifluoromethyl-pyridin-2-yl)-pyrido[2,3-d]pyrimidine-2-carboxylic acid (4-diethylamino-1-methyl-butyl)-amide]
> 6.00	CN1C(C)(C)CC(NC(=O)c2nc(Nc3ccc(C(F)(F)F)cc3)c3ccc(-c4ncccc4C(F)(F)F)nc3n2)CC1(C)C [Compound 447, 4-(4-Trifluoromethyl-phenylamino)-7-(3-trifluoromethyl-pyridin-2-yl)-pyrido[2,3-d]pyrimidine-2-carboxylic acid (1,2,2,6,6-pentamethyl-piperidin-4-yl)-amide]
> 6.00	CN1CCC(NC(=O)c2nc(Nc3ccc(C(F)(F)F)cc3)c3ccc(-c4ncccc4C(F)(F)F)nc3n2)CC1 [Compound 448, 4-(4-Trifluoromethyl-phenylamino)-7-(3-trifluoromethyl-pyridin-2-yl)-pyrido[2,3-d]pyrimidine-2-carboxylic acid (1-methyl-piperidin-4-yl)-amide]
> 6.00	CNC(=O)c1nc(Nc2ccc(C(F)(F)F)cc2)c2ccc(-c3ncccc3C(F)(F)F)nc2n1 [Compound 449, 4-(4-Trifluoromethyl-phenylamino)-7-(3-trifluoromethyl-pyridin-2-yl)-pyrido[2,3-d]pyrimidine-2-carboxylic acid methylamide]
> 6.00	CCNC(=O)c1nc(Nc2ccc(C(F)(F)F)cc2)c2ccc(-c3ncccc3C(F)(F)F)nc2n1 [Compound 450, 4-(4-Trifluoromethyl-phenylamino)-7-(3-trifluoromethyl-pyridin-2-yl)-pyrido[2,3-d]pyrimidine-2-carboxylic acid ethylamide]
